Results on 1 molecule are retold here after ChEMBL document CHEMBL4190187, “Discovery of pyrazolopyrimidine derivatives as novel inhibitors of ataxia telangiectasia and rad3 related protein (ATR)” (Bioorg Med Chem Lett, 2017).

Assay [1] has as its target Activin receptor type-2A (Homo sapiens) (UniProt P27037). In words: Inhibition of recombinant human ACTR2 (162 to end residues) at 1 uM using casein as substrate after 120 mins in presence of [gamma-33P]ATP by scintillation counting method.
Assay [2] has as its target Mitogen-activated protein kinase kinase kinase 5 (Homo sapiens) (UniProt Q99683). The assay is described as follows: Inhibition of recombinant human ASK1 (649 to 946 residues) at 1 uM using myelin basic protein as substrate after 40 mins in presence of [gamma-33P]ATP by scintillation counting method.
In assay [3] the target is Tyrosine-protein kinase receptor UFO (Homo sapiens) (UniProt P30530). The assay is described as follows: Inhibition of recombinant human Axl (473 to end residues) at 1 uM using KKSRGDYMTMQIG as substrate after 40 mins in presence of [gamma-33P]ATP by scintillation counting method.
Assay [4] deals with Tyrosine-protein kinase BTK (Homo sapiens, UniProt Q06187). In words: Inhibition of recombinant full-length human BTK at 1 uM using KVEKIGEGTYGVVYK as substrate after 40 mins in presence of [gamma-33P]ATP by scintillation counting method.
Assay [5] deals with Dual specificity protein kinase CLK1 (Homo sapiens) (UniProt P49759). In words: Inhibition of recombinant human CLK1 (130 to end residues) at 1 uM using ERMRPRKRQGSVRRRV as substrate after 40 mins in presence of [gamma-33P]ATP by scintillation counting method.
Assay [6] concerns the target G protein-coupled receptor kinase 5 (Homo sapiens) (UniProt P34947). The assay is described as follows: Inhibition of recombinant full-length human GRK5 at 1 uM using casein as substrate after 40 mins in presence of [gamma-33P]ATP by scintillation counting method.
For assay [7], the target named is Glycogen synthase kinase-3 alpha (Homo sapiens) (UniProt P49840). In words: Inhibition of recombinant human GSK3alpha (2 to end residues) at 1 uM using YRRAAVPPSPSLSRHSSPHQS(p)EDEEE (phospho GS2 peptide) as substrate after 40 mins in presence of [gamma-33P]ATP by scintillation counting method.
Assay [8] concerns the target Serine/threonine-protein kinase haspin (Homo sapiens) (UniProt Q8TF76). In words: Inhibition of recombinant human Haspin (471 to end residues) at 1 uM using RARTLSFAEPG as substrate after 40 mins in presence of [gamma-33P]ATP by scintillation counting method.
The target of assay [9] is Vascular endothelial growth factor receptor 2 (Homo sapiens) (UniProt P35968). The assay is described as follows: Inhibition of recombinant human KDR (790 to end residues) at 1 uM using myelin basic protein as substrate after 40 mins in presence of [gamma-33P]ATP by scintillation counting method.
The target of assay [10] is Dual specificity mitogen-activated protein kinase kinase 4 (Mus musculus) (UniProt P47809). The assay is described as follows: Inhibition of recombinant mouse MKK4 (34 to end residues) at 1 uM using inactive JNK1a1 as substrate after 40 mins in presence of [gamma-33P]ATP by scintillation counting method.
Assay [11] addresses MAP kinase-interacting serine/threonine-protein kinase 2 (Homo sapiens) (UniProt Q9HBH9). In words: Inhibition of recombinant full-length human Mnk2 at 1 uM using myelin basic protein as substrate after 40 mins in presence of [gamma-33P]ATP by scintillation counting method.
The target of assay [12] is Ribosomal protein S6 kinase alpha-5 (Homo sapiens) (UniProt O75582). In words: Inhibition of recombinant human MSK1 (2 to end residues) at 1 uM using GRPRTSSFAEGKK as substrate after 40 mins in presence of [gamma-33P]ATP by scintillation counting method.
Assay [13] addresses Myosin light chain kinase 2, skeletal/cardiac muscle (Homo sapiens) (UniProt Q9H1R3). The assay is described as follows: Inhibition of full-length recombinant human MYLK2 at 1 uM using KKLNRTLSFAEPG as substrate after 40 mins in presence of [gamma-33P]ATP by scintillation counting method.
Assay [14] has as its target Serine/threonine-protein kinase PAK 4 (Homo sapiens) (UniProt O96013). In words: Inhibition of recombinant human PAK4 (295 to end residues) at 1 uM using myelin basic protein as substrate after 40 mins in presence of [gamma-33P]ATP by scintillation counting method.
Assay [15] addresses PAS domain-containing serine/threonine-protein kinase (Homo sapiens) (UniProt Q96RG2). The assay is described as follows: Inhibition of recombinant human PASK (995 to end residues) at 1 uM using KKLNRTLSFAEPG as substrate after 40 mins in presence of [gamma-33P]ATP by scintillation counting method.
The species named for assay [16] is Homo sapiens. The assay is described as follows: Inhibition of recombinant full-length human p110a/recombinant p65a (1 to 571 residues) at 1 uM using phosphatidylinositol 4,5-bisphosphate as substrate after 40 mins in presence of [gamma-33P]ATP by scintillation counting method.
Assay [17] concerns the target Protein kinase C zeta type (Homo sapiens) (UniProt Q05513). The assay is described as follows: Inhibition of recombinant human PKCzeta (2 to end residues) at 1 uM using ERMRPRKRQGSVRRRV as substrate after 40 mins in presence of [gamma-33P]ATP by scintillation counting method.
Assay [18] addresses Mitogen-activated protein kinase 11 (Homo sapiens) (UniProt Q15759). In words: Inhibition of recombinant full-length human SAPK2b at 1 uM using myelin basic protein as substrate after 40 mins in presence of [gamma-33P]ATP by scintillation counting method.
Assay [19] addresses Serine/threonine-protein kinase TAO3 (Homo sapiens) (UniProt Q9H2K8). The assay is described as follows: Inhibition of recombinant human TAO3 (1 to 411 residues) at 1 uM using myelin basic protein as substrate after 40 mins in presence of [gamma-33P]ATP by scintillation counting method.
Assay [20] deals with Angiopoietin-1 receptor (Homo sapiens), Q02763 [Y897S]. In words: Inhibition of recombinant activated human Tie2 Y897S mutant (771 to end residues) at 1 uM using EFPIYDFLPAKKK as substrate after 40 mins in presence of [gamma-33P]ATP by scintillation counting method.
The target of assay [21] is Tyrosine-protein kinase TXK (Homo sapiens) (UniProt P42681). The assay is described as follows: Inhibition of recombinant human Txk (256 to end residues) at 1 uM using GEEPLYWSFPAKKK as substrate after 40 mins in presence of [gamma-33P]ATP by scintillation counting method.
Tyrosine-protein kinase TXK (Homo sapiens), sequence (P42681 whole entry): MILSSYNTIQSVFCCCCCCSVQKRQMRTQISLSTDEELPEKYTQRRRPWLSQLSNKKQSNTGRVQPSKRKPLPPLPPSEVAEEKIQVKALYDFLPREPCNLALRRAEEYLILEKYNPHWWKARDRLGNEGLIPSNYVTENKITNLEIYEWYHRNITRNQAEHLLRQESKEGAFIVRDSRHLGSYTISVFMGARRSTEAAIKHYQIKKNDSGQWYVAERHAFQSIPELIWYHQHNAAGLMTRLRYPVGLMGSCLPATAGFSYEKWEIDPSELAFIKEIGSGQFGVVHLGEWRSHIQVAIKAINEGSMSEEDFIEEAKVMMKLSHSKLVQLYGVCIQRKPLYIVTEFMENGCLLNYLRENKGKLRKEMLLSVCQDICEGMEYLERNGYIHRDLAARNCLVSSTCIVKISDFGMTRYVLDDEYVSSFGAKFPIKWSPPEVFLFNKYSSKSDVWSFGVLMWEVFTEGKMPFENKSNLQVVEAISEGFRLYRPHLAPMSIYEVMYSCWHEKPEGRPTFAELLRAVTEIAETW
The target of assay [22] is Wee1-like protein kinase (Homo sapiens) (UniProt P30291). The assay is described as follows: Inhibition of recombinant human Wee1 (214 to end residues) at 1 uM using LSNLYHQGKFLQTFCGSPLYRRR as substrate after 40 mins in presence of [gamma-33P]ATP by scintillation counting method.
Wee1-like protein kinase (Homo sapiens), sequence (P30291 whole entry, looked up, the tested form may be a part): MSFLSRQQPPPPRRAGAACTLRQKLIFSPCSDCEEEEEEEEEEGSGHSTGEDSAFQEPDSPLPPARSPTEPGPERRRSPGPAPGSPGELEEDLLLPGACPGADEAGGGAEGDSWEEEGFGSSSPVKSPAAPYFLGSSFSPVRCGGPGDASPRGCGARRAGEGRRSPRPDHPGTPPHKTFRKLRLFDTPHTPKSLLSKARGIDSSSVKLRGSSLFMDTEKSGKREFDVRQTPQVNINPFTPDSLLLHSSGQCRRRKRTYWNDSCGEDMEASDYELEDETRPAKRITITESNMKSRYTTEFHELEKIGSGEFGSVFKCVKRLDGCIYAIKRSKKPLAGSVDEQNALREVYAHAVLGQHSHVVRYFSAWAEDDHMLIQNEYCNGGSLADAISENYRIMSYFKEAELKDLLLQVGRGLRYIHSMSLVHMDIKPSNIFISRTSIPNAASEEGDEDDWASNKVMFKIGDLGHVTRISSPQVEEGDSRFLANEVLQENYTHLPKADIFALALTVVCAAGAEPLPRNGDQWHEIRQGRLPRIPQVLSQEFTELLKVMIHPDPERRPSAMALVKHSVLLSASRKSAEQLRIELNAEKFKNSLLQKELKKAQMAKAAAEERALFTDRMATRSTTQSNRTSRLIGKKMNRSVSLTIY
The target of assay [23] is Death-associated protein kinase 3 (Homo sapiens) (UniProt O43293). In words: Inhibition of recombinant human ZIPK (1 to 290 residues) at 1 uM using KKLNRTLSFAEPG as substrate after 40 mins in presence of [gamma-33P]ATP by scintillation counting method.
The target in assay [24] is Serine/threonine-protein kinase ATR (Homo sapiens, UniProt Q13535). In words: Inhibition of recombinant full-length human ATR at 10 uM using GST-cMyc-p53 as substrate after 40 mins in presence of [gamma-33P]ATP by scintillation counting method.
Serine/threonine-protein kinase ATR, sequence (Q13535 whole entry, looked up): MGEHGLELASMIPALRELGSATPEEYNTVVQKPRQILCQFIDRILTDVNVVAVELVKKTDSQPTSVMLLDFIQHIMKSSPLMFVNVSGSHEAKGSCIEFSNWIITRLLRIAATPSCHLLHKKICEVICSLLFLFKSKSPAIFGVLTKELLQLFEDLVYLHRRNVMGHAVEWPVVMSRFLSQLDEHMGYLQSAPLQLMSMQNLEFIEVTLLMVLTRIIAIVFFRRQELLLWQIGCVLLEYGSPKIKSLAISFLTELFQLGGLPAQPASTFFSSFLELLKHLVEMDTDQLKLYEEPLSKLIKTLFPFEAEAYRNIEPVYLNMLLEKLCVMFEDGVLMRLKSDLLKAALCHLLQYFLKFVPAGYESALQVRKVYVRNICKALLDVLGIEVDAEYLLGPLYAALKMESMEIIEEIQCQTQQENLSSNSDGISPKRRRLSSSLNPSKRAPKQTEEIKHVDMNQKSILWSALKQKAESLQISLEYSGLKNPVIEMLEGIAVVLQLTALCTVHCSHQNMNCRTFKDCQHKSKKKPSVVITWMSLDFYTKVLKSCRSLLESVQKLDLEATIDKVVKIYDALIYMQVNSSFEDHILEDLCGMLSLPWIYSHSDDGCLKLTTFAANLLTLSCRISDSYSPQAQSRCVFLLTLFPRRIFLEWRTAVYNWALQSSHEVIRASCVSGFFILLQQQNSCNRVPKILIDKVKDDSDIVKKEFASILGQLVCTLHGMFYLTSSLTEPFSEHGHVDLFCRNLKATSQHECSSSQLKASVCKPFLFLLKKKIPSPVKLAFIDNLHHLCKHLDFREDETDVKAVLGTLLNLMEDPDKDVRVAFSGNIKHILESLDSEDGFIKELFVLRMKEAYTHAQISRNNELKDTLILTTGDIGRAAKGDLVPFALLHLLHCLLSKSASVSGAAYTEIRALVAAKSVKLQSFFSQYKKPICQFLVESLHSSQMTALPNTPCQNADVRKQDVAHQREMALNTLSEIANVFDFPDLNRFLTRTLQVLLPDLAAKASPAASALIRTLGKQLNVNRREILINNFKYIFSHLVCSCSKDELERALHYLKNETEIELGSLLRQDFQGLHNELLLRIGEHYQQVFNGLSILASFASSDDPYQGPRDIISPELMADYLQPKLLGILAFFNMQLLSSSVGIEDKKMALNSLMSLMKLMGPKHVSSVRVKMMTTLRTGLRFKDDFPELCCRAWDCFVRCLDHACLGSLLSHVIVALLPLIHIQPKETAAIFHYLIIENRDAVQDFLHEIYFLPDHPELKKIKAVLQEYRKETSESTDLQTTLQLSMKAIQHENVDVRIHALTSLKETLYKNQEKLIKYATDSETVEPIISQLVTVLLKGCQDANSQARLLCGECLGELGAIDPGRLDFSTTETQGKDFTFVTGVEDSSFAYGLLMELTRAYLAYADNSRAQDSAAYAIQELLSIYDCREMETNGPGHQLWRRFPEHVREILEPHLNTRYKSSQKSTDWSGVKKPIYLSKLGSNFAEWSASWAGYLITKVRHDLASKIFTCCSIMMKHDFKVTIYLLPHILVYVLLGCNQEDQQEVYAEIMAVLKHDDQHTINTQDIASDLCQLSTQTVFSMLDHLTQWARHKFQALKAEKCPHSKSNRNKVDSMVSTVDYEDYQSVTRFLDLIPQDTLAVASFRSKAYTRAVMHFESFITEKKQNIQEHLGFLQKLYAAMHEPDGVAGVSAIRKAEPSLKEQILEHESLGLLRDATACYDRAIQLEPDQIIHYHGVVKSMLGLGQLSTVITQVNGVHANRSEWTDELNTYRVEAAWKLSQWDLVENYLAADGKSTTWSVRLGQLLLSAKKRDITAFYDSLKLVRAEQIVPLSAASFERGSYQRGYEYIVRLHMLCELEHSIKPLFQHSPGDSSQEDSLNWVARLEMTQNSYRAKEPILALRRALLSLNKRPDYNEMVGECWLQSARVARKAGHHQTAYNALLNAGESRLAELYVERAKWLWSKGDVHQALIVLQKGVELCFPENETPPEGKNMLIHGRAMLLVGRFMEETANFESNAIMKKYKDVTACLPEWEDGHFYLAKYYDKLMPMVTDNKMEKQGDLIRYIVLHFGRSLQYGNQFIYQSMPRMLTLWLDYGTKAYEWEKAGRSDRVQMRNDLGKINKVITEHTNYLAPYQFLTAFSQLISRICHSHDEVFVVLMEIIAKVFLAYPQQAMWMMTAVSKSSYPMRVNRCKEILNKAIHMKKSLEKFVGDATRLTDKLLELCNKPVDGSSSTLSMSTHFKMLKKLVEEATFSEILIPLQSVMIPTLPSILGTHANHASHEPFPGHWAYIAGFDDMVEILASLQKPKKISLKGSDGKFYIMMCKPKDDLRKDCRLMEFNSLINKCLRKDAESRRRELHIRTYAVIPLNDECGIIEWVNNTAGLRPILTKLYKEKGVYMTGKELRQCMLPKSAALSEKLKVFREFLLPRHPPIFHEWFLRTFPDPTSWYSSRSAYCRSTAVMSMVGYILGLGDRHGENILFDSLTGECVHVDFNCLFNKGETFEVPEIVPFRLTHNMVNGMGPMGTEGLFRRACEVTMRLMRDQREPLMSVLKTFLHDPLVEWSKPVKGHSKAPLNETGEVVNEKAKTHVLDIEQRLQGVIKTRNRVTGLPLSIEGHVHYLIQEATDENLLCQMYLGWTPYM

Serine/threonine-protein kinase haspin (Homo sapiens), sequence (Q8TF76 whole entry): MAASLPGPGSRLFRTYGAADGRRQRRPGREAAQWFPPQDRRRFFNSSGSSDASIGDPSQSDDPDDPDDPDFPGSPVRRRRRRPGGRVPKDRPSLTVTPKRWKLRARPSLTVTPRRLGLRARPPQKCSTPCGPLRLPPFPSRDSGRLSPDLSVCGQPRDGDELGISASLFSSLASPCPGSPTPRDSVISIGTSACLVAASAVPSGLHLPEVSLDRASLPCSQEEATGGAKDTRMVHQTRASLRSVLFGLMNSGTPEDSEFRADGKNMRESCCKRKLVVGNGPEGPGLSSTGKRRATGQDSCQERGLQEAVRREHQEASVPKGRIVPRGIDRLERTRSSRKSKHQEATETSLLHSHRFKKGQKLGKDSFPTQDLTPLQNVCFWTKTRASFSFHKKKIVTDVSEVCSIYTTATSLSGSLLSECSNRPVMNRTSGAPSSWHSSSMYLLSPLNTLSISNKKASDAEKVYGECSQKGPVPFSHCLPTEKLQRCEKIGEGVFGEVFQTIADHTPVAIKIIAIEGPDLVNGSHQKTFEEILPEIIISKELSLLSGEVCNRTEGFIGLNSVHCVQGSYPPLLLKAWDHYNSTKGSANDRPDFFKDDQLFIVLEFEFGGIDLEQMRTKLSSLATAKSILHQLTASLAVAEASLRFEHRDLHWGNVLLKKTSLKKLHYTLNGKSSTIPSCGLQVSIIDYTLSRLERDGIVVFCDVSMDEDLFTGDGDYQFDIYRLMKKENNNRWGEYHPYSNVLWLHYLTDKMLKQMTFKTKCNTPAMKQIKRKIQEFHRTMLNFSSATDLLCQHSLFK
Mitogen-activated protein kinase 11 (Homo sapiens), sequence (Q15759 whole entry, the tested form may be a part): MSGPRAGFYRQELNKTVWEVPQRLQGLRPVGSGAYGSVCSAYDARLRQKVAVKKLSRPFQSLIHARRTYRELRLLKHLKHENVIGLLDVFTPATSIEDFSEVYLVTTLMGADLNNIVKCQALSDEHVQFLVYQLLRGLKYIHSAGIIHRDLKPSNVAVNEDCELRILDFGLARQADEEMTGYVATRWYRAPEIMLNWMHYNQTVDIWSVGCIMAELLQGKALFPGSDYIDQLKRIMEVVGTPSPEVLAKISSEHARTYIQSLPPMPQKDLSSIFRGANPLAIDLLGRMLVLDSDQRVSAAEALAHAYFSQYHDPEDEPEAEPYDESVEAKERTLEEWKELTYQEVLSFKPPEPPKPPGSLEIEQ

Take `CS(=O)(=O)c1ccc(-n2nc(-c3cnc4[nH]ccc4c3)c3c(N)ncnc32)cc1`: the inhibition is 6% in assay [1]; -7% in assay [2]; 9% in assay [3]; 25% in assay [4]; 10% in [5]; -1% in assay [6]. Further, the inhibition in [7] was 17%; in assay [8] it was -9%; in assay [9], 72%; in assay [10], 10%; in assay [11], -6%; in assay [12], 0%. For the same molecule, the inhibition was 18% in assay [13]; 45% in assay [14]; -6% in [15]; 8% in assay [16]; 3% in [17]; -1% in assay [18]. In addition, the inhibition in [19] was 5%; in [20], 1%; in [21], 78%; in [22], 1%; in [23], 0%; in assay [24], 106%.
